Measurements as given in US20140024662A1, “COMPOUNDS, SCREENS, AND METHODS OF TREATMENT” (Shanghai Institute of Organic Chemistry, priority 2006, published 2014).
Entries after “also recorded” stand apart in the source; their conditions may differ. Read-outs that look alike come from different tables or passages of the source.

Tested on: FADD-deficient Jurkat cells
Assay: necroptosis assay: FADD-deficient Jurkat cells treated with TNFα, cell viability
Type: cell-based, human
Details: for activity in the necroptosis assay, in words / Max Prot: FADD-deficient Jurkat cells treated with TNFα; for Max Prot: max viability obtained in the presence of a compound; call rule not given here
Excerpt: Herein we describe the structure activity analysis of Nec-5 analogs.

[1] = effective concentration for half-maximum response, inhibition of necroptosis in FADD-deficient Jurkat cells treated with TNFα
[2] = effective concentration for half-maximum response, inhibition of necroptosis in FADD-deficient Jurkat cells treated with TNFα, read-out: EC50

SMILES | EC50 [1] | activity in the necroptosis assay, in words | EC50 [2] [nM] | Max Prot | further results
CCN1CCc2c(sc3nc(SC)n(-c4ccc(OC)cc4)c(=O)c23)C1 [Compound 91] | inactive | – | – | – | –
CCCCCCSc1nc2sc3c(c2c(=O)n1-c1ccc(OC)cc1)CCCC3 [Compound 11] | inactive | – | – | – | –
CCc1sc2nc(SCC#N)n(-c3ccc(F)cc3)c(=O)c2c1C [Compound 120] | inactive | – | – | – | –
CSc1nc2sc3c(c2c(=O)n1-c1ccc2c(c1)OCO2)CCC3 [Compound 132] | inactive | inactive | – | – | –
CCCc1sc2nc(SCCO)n(-c3ccc(OC)cc3)c(=O)c2c1C [Compound 116] | inactive | – | – | – | –
CCSc1nc2sc(CC)c(C)c2c(=O)n1-c1ccc(OC)cc1 [Compound 111] | inactive | – | – | – | –
COc1ccc(-n2c(SCC#N)nc3sc(C(C)C)c(C)c3c2=O)cc1 [Compound 70] | inactive | inactive | – | – | –
CCN1CCc2c(sc3nc(SCC#N)n(-c4ccc(OC)cc4)c(=O)c23)C1 [Compound 77] | inactive | essentially inactive | – | – | –
COc1ccc(-n2c(SCC#N)nc3sc4c(c3c2=O)CCCC4)c(OC)c1 [Compound 46] | inactive | eliminated activity | – | – | –
COc1ccc(-n2c(SC)nc3scc(C)c3c2=O)cc1 [Compound 80] | inactive | – | – | – | –
COc1ccc(-n2c(SCC#N)nc3sc(C)c(C)c3c2=O)cc1 [Compound 67] | – | a high degree of activity is retained; also recorded: showed substantial activity; also recorded: showed significant higher activity compared to compound (154) | 450 | 100% | –
COc1ccc(-n2c(SCCO)nc3sc4c(c3c2=O)CCC4)cc1 [Compound 103] | – | – | 7140 | 100% | –
COc1ccccc1-n1c(SCC#N)nc2sc3c(c2c1=O)CCCC3 [Compound 33] | – | – | 17800 | 51.2% | –
COc1ccc(-n2c(SCC#N)nc3sc4c(c3c2=O)CCCC4)cc1 [Compound 1, 3-p-methoxyphenyl-5,6-tetra-methylenothieno-[2,3-d]-pyrimidin-4-one-2-mercaptoethylcyanide] | – | prevents the death | – | 100% | EC50 (Homo sapiens, Jurkat): 240 nM
COc1ccc(-n2c(SC(C)=O)nc3sc4c(c3c2=O)CCCC4)cc1 [Compound 21] | inactive | – | – | – | –
CSc1nc2sc3c(c2c(=O)n1-c1ccc(C)c(C)c1)CCCC3 [Compound 55] | – | – | 16700 | 38.0% | –
COc1ccc(-n2c(SC(=O)c3ccccc3)nc3sc4c(c3c2=O)CCCC4)cc1 [Compound 23] | inactive | – | – | – | –
Cc1ccccc1-n1c(SCC#N)nc2sc3c(c2c1=O)CCCC3 [Compound 37] | inactive | – | – | – | –
CSc1nc2sc(C)c(C)c2c(=O)n1-c1ccc2c(c1)OCO2 [Compound 130] | – | – | 1110 | 67.0% | –
CCc1sc2nc(SCC#N)n(-c3ccc(OC)cc3)c(=O)c2c1C [Compound 68] | – | – | 5260 | 86.8% | –
N#CCSc1nc2sc3c(c2c(=O)n1-c1ccc(F)cc1)CCCC3 [Compound 39] | – | retained significant activity; also recorded: showed substantial activity; also recorded: decreased activity | 240 | 85.1% | –
COc1ccc(-n2c(SC)nc3sc4c(c3c2=O)CCC(C)C4)cc1OC (stereo not drawn) [Compound 174] | inactive | – | – | – | –

SMILES | EC50 [1] | activity in the necroptosis assay, in words | EC50 [2] [nM] | Max Prot | further results
COc1ccc(-n2c(SCCC#N)nc3sc(C)c(C)c3c2=O)cc1 [Compound 113] | inactive | – | – | – | –
COc1ccc(-n2c(SCC#N)nc3sc4c(c3c2=O)CCC(C)C4)cc1OC (stereo not drawn) [Compound 166] | inactive | – | – | – | –
CCCSc1nc2sc3c(c2c(=O)n1-c1ccc(OC)cc1)CCC3 [Compound 94] | inactive | – | – | – | –
CSc1nc2sc3c(c2c(=O)n1-c1ccc(OCc2ccccc2)cc1)CCCC3 [Compound 52] | inactive | – | – | – | –
COC(=O)CSc1nc2sc3c(c2c(=O)n1-c1ccc(OC)cc1)CCCC3 [Compound 19] | inactive | completely destroyed the activity | – | – | –
N#CCCSc1nc2sc3c(c2c(=O)n1-c1ccc2c(c1)OCO2)CCCC3 [Compound 48, 3-(3′,4′)-methylene-dioxyphenyl-5,6-tetramethylenothieno[2,3-d]pyrimidin-4-one-2-mercaptoethylcyanide] | – | showed good activity; also recorded: showed substantial activity; also recorded: showed significant activity | 890 | 100% | –
COc1ccc(-n2c(SC)nc3sc(C)c(C)c3c2=O)cc1 [Compound 81] | inactive | – | – | – | –
Cc1sc2nc(SCC#N)n(-c3ccc(F)cc3)c(=O)c2c1C [Compound 119] | – | – | 4430 | 87.6% | –
CSc1nc2sc(C)c(C)c2c(=O)n1-c1ccc(F)cc1 [Compound 123] | – | – | 2600 | 69.2% | –
CCSc1nc2sc3c(c2c(=O)n1-c1ccc(OC)cc1)CCCC3 [Compound 7] | inactive | – | – | – | –
N#CCSc1nc2sc3c(c2c(=O)n1-c1ccc(Cl)cc1)CCCC3 [Compound 41] | – | activity significantly decreased | 8500 | 55.0% | –
CN(C)c1ccc(-n2c(SCC#N)nc3sc4ccccc4c3c2=O)cc1 [Compound 148] | inactive | – | – | inactive | –
CCOc1ccc(-n2c(SCC#N)nc3sc4c(c3c2=O)CCCC4)cc1 [Compound 35] | – | retained some activity; also recorded: showed significant higher activity compared to compound (154) | 550 | 83.8% | –
CCOc1ccc(-n2c(SCC#N)nc3sc(C)c(C)c3c2=O)cc1 [Compound 154] | – | – | 7770 | 97% | –
COc1ccc(-n2c(SCC#N)nc3sc4c(c3c2=O)CCC4)cc1 [Compound 73] | – | retained most of the activity; also recorded: showed activity; also recorded: exhibited a certain degree of activity | 450 | 100% | –
CCc1sc2nc(SC)n(-c3ccc(OC)cc3)c(=O)c2c1C [Compound 83] | inactive | – | – | – | –
COc1ccc(-n2c(SCCl)nc3sc4c(c3c2=O)CCCC4)cc1 [Compound 25] | – | exhibited some activity | 2220 | 85% | –
CCCc1sc2nc(SC)n(-c3ccc(OC)cc3)c(=O)c2c1C [Compound 84] | inactive | – | – | – | –
Cc1sc2nc(SCC#N)n(-c3ccc(N(C)C)cc3)c(=O)c2c1C [Compound 157] | inactive | – | – | – | –
COc1ccc(-n2c(SCc3ccc(C)cc3)nc3sc4c(c3c2=O)CCCC4)cc1 [Compound 15] | inactive | – | – | – | –
N#CCSc1nc2sc3c(c2c(=O)n1-c1ccc2c(c1)OCCO2)CCC3 [Compound 133] | – | – | 250 | 100% | –
CCCc1sc2nc(SCC)n(-c3ccc(OC)cc3)c(=O)c2c1C [Compound 117] | inactive | – | – | – | –

SMILES | EC50 [1] | activity in the necroptosis assay, in words | EC50 [2] [nM] | Max Prot | further results
CSc1nc2sc3c(c2c(=O)n1-c1ccc(Cl)c(Cl)c1)CCCC3 [Compound 56] | inactive | – | – | – | –
COc1ccc(-n2c(SC)nc3sc4c(c3c2=O)CCCC4)cc1 [Compound 6] | – | reserves its activity to a significant extent | 240 | 71% | –
CCN1CCc2c(sc3nc(SC)n(-c4ccccc4)c(=O)c23)C1 [Compound 181] | inactive | – | – | – | –
COc1ccc(-n2c(SCCC#N)nc3sc4c(c3c2=O)CCCC4)cc1 [Compound 24] | – | retained some activity | 5280 | 70% | –
COc1ccc(-n2c(SCCO)nc3sc(C)c(C)c3c2=O)cc1 [Compound 114] | – | possess some activity | 7260 | 78% | –
Cc1ccc(-n2c(SCC#N)nc3sc(C)c(C)c3c2=O)cc1C [Compound 137] | – | showed higher activity than compound (43) | 2790 | 90.7% | –
COc1ccc(-n2c(SCC#N)nc3sc4c(c3c2=O)CCC4)cc1OC [Compound 169] | inactive | – | – | – | –
COc1ccc(-n2c(SCc3ccccc3)nc3sc4c(c3c2=O)CCC4)cc1 [Compound 99] | inactive | – | – | – | –
CCc1sc2nc(SCCO)n(-c3ccc(OC)cc3)c(=O)c2c1C [Compound 115] | inactive | – | – | – | –
COc1ccc(-n2c(SCC#N)nc3sc4c(c3c2=O)CCCCC4)cc1 [Compound 74] | – | less active; also recorded: exhibited a certain degree of activity | 960 | 83% | –
C#CCSc1nc2scc(C)c2c(=O)n1-c1ccc(OC)cc1 [Compound 105] | inactive | – | – | – | –
CCSc1nc2sc3c(c2c(=O)n1-c1ccc(OC)cc1)CCCCC3 [Compound 112] | inactive | – | – | – | –
CCOc1ccc(-n2c(SC)nc3sc(C)c(C)c3c2=O)cc1 [Compound 158] | inactive | – | – | – | –
CSc1nc2sc3c(c2c(=O)n1-c1ccc(Br)cc1)CCCC3 [Compound 54] | inactive | – | – | – | –
N#CCSc1nc2sc3c(c2c(=O)n1-c1ccc(OC(F)(F)F)cc1)CCCCC3 [Compound 168] | inactive | – | – | – | –
Cc1ccc(-n2c(SCC#N)nc3sc4c(c3c2=O)CCC4)cc1C [Compound 139] | inactive | essentially inactive | – | – | –
N#CCSc1nc2sc3ccccc3c2c(=O)n1-c1ccc(F)cc1 [Compound 144] | – | – | 3060 | – | –
C#CCSc1nc2sc3c(c2c(=O)n1-c1ccc(OC)cc1)CCCC3 [Compound 13] | – | exhibited some activity | 6080 | 80.7% | –
CCCCCSc1nc2sc3c(c2c(=O)n1-c1ccc(OC)cc1)CCC3 [Compound 96] | inactive | – | – | – | –
CSc1nc2sc3ccccc3c2c(=O)n1-c1ccc2c(c1)OCO2 [Compound 152] | inactive | – | – | – | –
